Assay results as given in PubChem BioAssay AID179 (DTP/NCI, 2004).
“And” between values parts separate entries of the source, which are not always exact repeats. Equal values may be shown once. The source made the active and inactive calls.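 The calls were made as follows: active = compounds giving half or more protection of infected cells from virus-caused growth loss, again on retest; inactive = the rest.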

Test system: CEM cells HIV-1 protection, formazan growth assay
Experiment: NCI AIDS Antiviral Assay
Conditions: for IC50: measured here: growth of uninfected CEM cells
Summary of the method: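 Human CEM cells, uninfected and HIV-1-infected, received five drug concentrations, and growth was read by soluble formazan assay. Compounds giving at least 50% protection were retested; reproducible 100% protection defined confirmed active.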

Row | SMILES | EC50 [µM] | IC50 | outcome
1 | CN(C)CCNc1nc2c(no[n+]2[O-])c2ccccc12 | > 200 | 9.33 µM | –
2 | Cc1cc2c(c(=O)n1C)SCC2 | > 200 | > 200 µM | –
3 | CN1CCC2c3c([nH]c4ccccc34)C(C)(C)OC2C1 (centres undefined) | > 200 | > 200 µM | –
4 | O=C(O)c1ccccc1O | > 1820 | 692 µM | inactive
5 | Cc1ccc(C(=O)Nc2ccc(CP(=O)(O)O)cc2CP(=O)(O)O)cc1N | > 174 | > 174 µM | –
6 | Cc1ccc2c(c1)nc1c3ccccc3nc(-c3ccccc3N)n21 | > 28.8 | > 28.8 µM | –
7 | CC1(C)OCC(/C=C\C(O)CC2(C)OCCO2)CO1 (centres undefined) | – | – | inactive
8 | COC(=O)C1=CC2C(=O)OC1C1C(=O)NC(=O)C21 (centres undefined) | – | – | inactive
9 | COc1cc(C2C(Cl)C(=O)N2NC(=O)c2ccc(NC(C)=O)cc2)cc(Br)c1O (centres undefined) | > 200 | 162 µM | –
10 | CCCN(CC)C(=O)COc1cc2c(O)c3c(O)c(C)c4c(c13)C(=O)C(C)(O/C=C/C(OC)C(C)C(OC(C)=O)C(C)C(O)C(C)C(O)C(C)/C=C/C=C(\C)C(=O)N2)O4 (centres undefined) | > 200 | 12.9 µM | –
11 | CCN1C(=O)CCCCC(=O)Nc2ccccc2-c2ccccc21 | – | – | inactive
12 | CC1(C)OC(CP(c2ccccc2)c2ccccc2)C(CP(c2ccccc2)c2ccccc2)O1 (centres undefined) | > 2 | 0.229 µM | –
13 | O=C1CS(=O)(=O)C(c2ccc(F)cc2)N1N1C(=O)CS(=O)(=O)C1c1ccc(F)cc1 (centres undefined) | > 200 | > 200 µM | –
14 | c1ccc(-c2nc3cc4c(cc3n3cccc23)oc2ccccc24)cc1 | > 100 | 85.1 µM | –
15 | O=C(CCCN1CCC2(CC1)NC(=O)c1ccccc1O2)c1ccc(F)cc1 | > 200 | > 200 µM | –
16 | Nc1c2cc3ccc2nc2ccc(cc12)OCCOCCOCCOCCOCCOCCO3 | > 200 | > 200 µM | –
17 | CC(=O)Oc1ccc2c(c1)O/C(=C\c1ccc(N(C)C)cc1)C2=O | > 200 | 28.8 µM | –
18 | Cc1cc(=O)[nH]c(NNC(C#N)c2ccccc2O)n1 (centres undefined) | > 182 | 0.38 µM | –
19 | O=C1c2ccccc2C(=C2c3ccccc3C(=O)c3ccccc32)c2ccccc21 | – | – | inactive
20 | CC1(C)Oc2ccc(NC(=O)CCC(N)C(=O)O)cc2O1 (centres undefined) | 186 | > 200 µM | –
21 | CCOC(=O)CC1(C)c2nc(NC(C)=O)sc2Cc2sc(NC(C)=O)nc21 | > 200 | 186 µM | –
22 | COC(=O)c1ccc(CSc2ccc(Cl)cc2)cc1 | > 4.9 | 3.55 µM | –

Row | SMILES | EC50 [µM] | IC50 | outcome
23 | COc1cc2c(cc1C1=NC(C)(C)CO1)OCO2 | > 1000 | > 1000 µM | –
24 | Cc1c2c(c(C)c3c[n+](C)ccc13)Oc1ccccc1O2 | > 20 | 3.72 µM | –
25 | CC(=O)/C(=C/N1CCNC1=S)C(=O)Nc1ccccc1C | > 200 | > 200 µM | –
26 | Cc1cc(S(=O)(=O)Nc2nnc3ccccn23)c(S)cc1Cl | 102 | 380 µM | –
27 | O=C1C/C(=C\c2ccccc2)C(=O)c2ccccc2N1 | > 200 | 12.6 µM | –
28 | CC1CN=C(NS(=O)(=O)c2cc(C(=O)Nc3ccc(F)cc3)c(Cl)cc2S)NN1 (centres undefined) | > 200 | 24 µM | –
29 | CN(C)CCSC1=Nc2ccc(Cl)cc2C(c2ccccc2Cl)=NC1 | > 200 | 12.3 µM and 47.9 µM | –
30 | CCN(CC)c1c(N(CC)CC)c(=O)c1=O | > 200 | 6.03 µM | –
31 | CC1=CC2=C(OCO1)C(=O)c1ccccc1C2=O | – | – | inactive
32 | CCOC(=O)C1=CC(C)(C(=O)OCC)Nc2c(nc(SC)n(C)c2=O)N1 (centres undefined) | > 200 | 145 µM | –
33 | O=C1C=C(C2=CC(=O)C(=O)c3ccccc32)c2ccccc2C1=O | > 151 | 1.91 µM | –
34 | O=C(O)c1ccc(-c2c3ccc(=O)cc-3oc3cc(O)ccc23)cc1 | > 200 | 107 µM | –
35 | COc1ccc(-c2nc(-c3cc4ccccc4oc3=O)cs2)cc1 | > 100 | > 100 µM | –
36 | COc1ccc2[nH]c3c(C)cc([N+](=O)[O-])c(C)c3c2c1 | > 200 | 10.7 µM | –
37 | CCOC(=O)C1Cc2c(ccc(OC)c2OC)C(=O)C1N (centres undefined) | – | – | inactive
38 | C1=C(c2ccccc2)C(OC2Oc3ccccc3C=C2c2ccccc2)Oc2ccccc21 (centres undefined) | > 31.6 | > 31.6 µM | –
39 | O=C(O)Cc1cc(=O)oc2cc(O)c(Cl)cc12 | > 708 | > 708 µM | –
40 | CC(C)C1COC(c2ccc3ccccc3c2-c2c(O[Si](C)(C)C(C)(C)C)ccc3ccccc23)=N1 (centres undefined) | > 7.59 | > 7.59 µM | –
41 | NC(=O)C(=CN1C(=O)/C(=C/c2ccc([N+](=O)[O-])cc2)SC1=S)C(N)=O | > 200 | 30.2 µM | –
42 | Oc1ccccc1-c1n[nH]c(=S)n1/N=C/c1ccc(-c2ccc(Br)cc2)o1 | > 42.7 | > 42.7 µM | –
43 | CC(=O)O[C@]12CCCCCC1C1(O)C(O)CCCC[C@H]12 (some centres undefined) | > 200 | > 200 µM | –
44 | COC1(C)CNCC(C)(C)NC(=O)C(C)(OC)CNCC(C)(C)NC1=O (centres undefined) | > 81.3 | > 81.3 µM | –

Row | SMILES | EC50 [µM] | IC50 | outcome
45 | Cc1ccc(NC(=O)CC(=O)N2N=C(N(c3ccccc3)c3ccccc3)CC2c2ccccc2)cc1 (centres undefined) | – | – | inactive
46 | CC(C)=CC(=O)c1c(C(=O)O)nc2ccccc2[n+]1[O-] | – | – | inactive
47 | CCOC(=O)N1CCc2cc(OC)c(OC)c3c2c1cc1cc(OC)c(OC)cc13 | – | – | inactive
48 | Oc1cc(O)c(C2c3ccc(O)cc3OC(c3ccc(O)c(O)c3)C2O)c(O)c1 (centres undefined) | > 46.8 | > 46.8 µM | –
49 | CC1=N/C(=C\c2ccc(C#N)cc2)C(=O)O1 | > 123 | > 123 µM | –
50 | COc1ccc(C)cc1NC(=O)C(Br)C(Br)C(=O)O (centres undefined) | > 200 | 13.5 µM | –
51 | CC(=O)OCC1OC(n2c(=O)n(-c3ccccc3)c(=O)c3cc(Br)cc(Br)c32)C(OC(C)=O)C(OC(C)=O)C1OC(C)=O (centres undefined) | > 13.8 | > 13.8 µM | –
52 | O=c1[nH]c2ccccc2c(O)c1Cc1ccccc1 | > 200 | > 200 µM | –
53 | Cc1ccc(CN2CC(=O)N3Cc4ccccc4CN3C(=O)C2)cc1 | – | – | inactive
54 | CC(=O)[C@H]1[C@H](O)C[C@@]2(C)[C@@H]3CCc4cc(O)c(OC5OC(CO)C(O)C(O)C5O)cc4C3(C)C(=O)C[C@]12C (some centres undefined) | > 200 | > 200 µM | –
55 | O=c1[nH]ncc2c1nnn2C1CCC(CO)O1 (centres undefined) | > 200 | > 200 µM | –
56 | NC(CSS(=O)(=O)O)=NCC12CC3CC(CC(C3)C1)C2 | > 200 | 32.4 µM | –
57 | O=C(/C=C/c1ccc2c(c1)OCO2)c1ccccc1 | > 200 | 7.08 µM and 11.2 µM | –
58 | CCN(CC)P(=O)(c1ccc2c(c1)OCCOCCOCCOCCO2)N(CC)CC | > 200 | > 200 µM | –
59 | C[N+]12CCCCC1C(COc1cccc3cccnc13)CCC2 (centres undefined) | > 200 | 117 µM | –
60 | CC(=O)Nc1cc2nc3n(c2cc1C)CCC3OC(C)=O (centres undefined) | > 200 | > 200 µM | –
61 | CCCNCC(=O)O[C@]1(CC)C(=O)OCc2c1cc1n(c2=O)Cc2cc3ccccc3nc2-1 | > 10 | 0.0525 µM | –
62 | CCOC/N=C(/N)NC#N | > 631 | > 631 µM | –
63 | O=C1CC2C(=O)N(Cc3ccccc3)C1C=C2S(=O)(=O)c1ccccc1 (centres undefined) | – | – | inactive
64 | CC(C)[C@@H](C)/C=C/[C@@H](C)C1CC2C3=CC=C4C[C@@H](OC5OCC(O)C6OC(=O)C(=O)OC56)CC[C@]4(C)C3CC[C@]2(C)C1 (some centres undefined) | > 200 | 11 µM | –
65 | CN(CC#N)C1CCC[C@]1(O)/C=C/[Si](C)(C)C (some centres undefined) | > 102 | > 102 µM | –
66 | CC1CC(=O)Nc2ccccc2N1C(=O)CN1CCC(CCCCN(C)C)CC1 (centres undefined) | > 251 | > 251 µM | –

Row | SMILES | EC50 [µM] | IC50 | outcome
67 | Cc1cn(C2C=CC(CO)(C(F)(F)F)O2)c(=O)[nH]c1=O (centres undefined) | > 200 | > 200 µM | –
68 | O=C1NC(=S)N/C1=C\c1ccc(Sc2ccccc2C(=O)O)s1 | > 200 | 110 µM | –
69 | CCN1C[C@]2(COC(=O)c3ccccc3N3C(=O)CC(C)C3=O)CCC(OC)C34[C@@H]5C[C@@H]6C(OC)[C@@H]5[C@](O)(C[C@@H]6OC)[C@@](O)([C@H]13)[C@@H](OC)[C@@H]42 (some centres undefined) | – | – | inactive
70 | CCOC(=O)c1c(SCCN2CCOCC2)n(-c2ccccc2)c(=S)n(-c2ccccc2)c1=O | > 27.5 | > 27.5 µM | –
71 | O=[N+]([O-])c1ccccc1S(=O)(=O)c1ccccc1[N+](=O)[O-] | 1.26 | 145 µM | –
72 | NC1=C(Br)C(=O)c2ncccc2C1=O | – | – | inactive
73 | CC(C)C1CCC2(C)CC3C(CO)CC(O)C3C(C)(O)C/C=C/12 (centres undefined) | – | – | inactive
74 | COc1cc(C2c3cc4c(cc3OC3(N5CCCC5)CCCC23)OCO4)cc(OC)c1OC (centres undefined) | > 550 | 2.82 µM | –
75 | CCCCN(CCCC)C(=NCc1ccccc1)NC#N | > 100 | 17.4 µM | –
76 | CN(NC(=O)/C(=C\c1ccco1)NC(=O)c1ccccc1)c1cn[nH]c(=O)c1Cl | > 200 | 38.9 µM | –
77 | CS(=O)(=O)NC12CCC(c3ccccc31)c1ccccc12 | > 200 | > 200 µM | –
78 | COc1ccc(/C=C2/Cc3cccc4c([N+](=O)[O-])ccc2c34)cc1 | > 100 | > 100 µM | –
79 | N#CCCN(CCC#N)c1ccc(C(=O)NN)cc1 | > 363 | 288 µM | –
80 | CCN(CC)CCOc1ccc2c(c1)C(=O)c1cc(OCCN(CC)CC)ccc1-2 | > 200 | 12.3 µM | –
81 | Nc1nc(N)c2cc(-c3ccccc3)cnc2n1 | > 200 | 15.8 µM | –
82 | COc1ccc(-n2nc(C)cc(Cl)c2=O)cc1 | > 145 | > 145 µM | –
83 | [O-][n+]1nc(N2CCOCC2)nc2ccccc21 | > 200 | > 200 µM | –
84 | O=C1c2cccc3cccc(c23)C(=O)N1c1ccc([N+](=O)[O-])cc1[N+](=O)[O-] | > 200 | 120 µM | –
85 | Cc1cccc(N=Nc2c(S(=O)(=O)O)cc3cc(NC(=O)Nc4ccc5c(O)c(N=Nc6ccc7cc(S(=O)(=O)O)ccc7c6)c(S(=O)(=O)O)cc5c4)ccc3c2O)c1 | 15.8 | 75.9 µM | –
86 | CCN(CC)CCC(=O)OC1C(C)=CC(C)C(=O)CC(C(C)CC2CCC(O)C(OC)C2)OC(=O)C2CCCCN2C(=O)C(=O)[C@@]2(O)OC(CCC2C)CC(OC)\C(C)=C/C=C/C=C/C(C)CC(C)C(=O)C1OC (some centres undefined) | > 200 | 9.12 µM | –
